Earlier results, collected in US20250340675A1 (priority 2022, published 2025).

Legend:
mice [1] = details: oral administration in mice
mice [2] = details: neurotoxic adverse effects; oral administration in mice
albino mice = details: mouse, in vivo
[3] = in vivo

Compound: OCCCCO [1,4-Butanediol]
- median lethal dose (LD50) (mice [1]): 1,525 mg/kg
- no observed adverse effect level (NOAEL) (mice [2]): 100 mg/kg per day

Compound: O=C(O)c1cc(O)c(O)c(O)c1 [gallic acid, 3,4,5-trihydroxy benzoic acid]
- LD50 (acute toxicity) (albino mice): greater than 2000 mg/kg

Compound: Hyaluronic acid [HA]
- half-life ([3]; human): 24÷48 hours
- average turnover rate [3]: 5 g/day
